Test results as given in US11912686B2 (Gilead Sciences, Inc., priority 2020, dated 2024).

Target: human LPAR1 (Homo sapiens (Human), UniProt Q92633)
Assay: LPAR1 intracellular calcium mobilization assay (antagonist mode, FLIPR)
Assay type: cell-based
Conditions: CHO-K1 EDG2 cells expressing human LPAR1, LPA 18:2 at EC80 (100 nM), test compound 0.5 nM to 10 μM

human LPAR1, sequence (Q92633 whole entry): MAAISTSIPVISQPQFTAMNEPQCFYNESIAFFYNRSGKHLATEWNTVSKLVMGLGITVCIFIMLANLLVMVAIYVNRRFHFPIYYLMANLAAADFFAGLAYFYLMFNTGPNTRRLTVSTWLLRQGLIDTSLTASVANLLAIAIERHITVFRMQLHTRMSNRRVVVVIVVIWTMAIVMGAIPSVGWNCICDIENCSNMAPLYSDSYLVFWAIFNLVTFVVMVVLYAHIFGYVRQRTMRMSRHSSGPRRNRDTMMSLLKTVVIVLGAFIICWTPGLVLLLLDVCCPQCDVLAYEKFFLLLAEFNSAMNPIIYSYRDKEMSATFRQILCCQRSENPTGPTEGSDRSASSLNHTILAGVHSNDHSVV

Row | SMILES | EC50 [nM]
1 | CO[C@H]1C[C@@H](C(=O)Nc2ccc(-c3nnn(C)c3NC(=O)O[C@H](C)c3cccnc3Cl)nc2)C1 [Compound 157, (R)-1-(2-chloropyridin-3-yl)ethyl (4-(5-((1s,3S)-3-methoxycyclobutane-1-carboxamido)pyridin-2-yl)-1-methyl-1H-1,2,3-triazol-5-yl)carbamate] | 74.5
2 | C[C@@H](OC(=O)Nc1c(-c2ccc(NC(=O)C3[C@@H]4COC[C@@H]34)cn2)nnn1C)c1cccnc1Cl (stereo partly drawn) [Compound 158, (R)-1-(2-chloropyridin-3-yl)ethyl (4-(5-((1R,5R)-3-oxabicyclo[3.1.0]hexane-6-carboxamido)pyridin-2-yl)-1-methyl-1H-1,2,3-triazol-5-yl)carbamate] | 117
3 | C[C@@H](OC(=O)Nc1c(-c2ccc(NC(=O)C3C4CCOC43)cn2)nnn1C)c1cccnc1Cl (stereo partly drawn) [Compound 159, (R)-1-(2-chloropyridin-3-yl)ethyl (4-(5-(2-oxabicyclo[3.1.0]hexane-6-carboxamido)pyridin-2-yl)-1-methyl-1H-1,2,3-triazol-5-yl)carbamate] | 394
4 | Cc1cc(C2(C(=O)Nc3ccc(-c4nnn(C)c4NC(=O)O[C@H](C)c4cccnc4Cl)nc3)CC2)on1 [Compound 160, (R)-1-(2-chloropyridin-3-yl)ethyl (1-methyl-4-(5-(1-(3-methylisoxazol-5-yl)cyclopropane-1-carboxamido)pyridin-2-yl)-1H-1,2,3-triazol-5-yl)carbamate] | 1450
5 | C[C@@H](OC(=O)Nc1c(-c2ccc(NC(=O)[C@@H]3C[C@H]3F)cn2)nnn1C)c1cc(F)cnc1F [Compound 161, (R)-1-(2,5-difluoropyridin-3-yl)ethyl (4-(5-((1S,2R)-2-fluorocyclopropane-1-carboxamido)pyridin-2-yl)-1-methyl-1H-1,2,3-triazol-5-yl)carbamate] | 66.8
6 | C[C@@H](OC(=O)Nc1c(-c2ccc(NC(=O)C34CC(C#N)(C3)C4)cn2)nnn1C)c1cc(F)cnc1F [Compound 162, (R)-1-(2,5-difluoropyridin-3-yl)ethyl (4-(5-(3-cyanobicyclo[1.1.1]pentane-1-carboxamido)pyridin-2-yl)-1-methyl-1H-1,2,3-triazol-5-yl)carbamate] | 84.7
7 | C[C@@H](OC(=O)Nc1c(-c2ccc(NC(=O)C34CC(F)(C3)C4)cn2)nnn1C)c1cc(F)cnc1F [Compound 163, (R)-1-(2,5-difluoropyridin-3-yl)ethyl (4-(5-(3-fluorobicyclo[1.1.1]pentane-1-carboxamido)pyridin-2-yl)-1-methyl-1H-1,2,3-triazol-5-yl)carbamate] | 32.6
8 | C[C@@H](OC(=O)Nc1c(-c2ccc(NC(=O)[C@@H]3CC3(F)F)cn2)nnn1C)c1cc(F)cnc1F [Compound 164, (R)-1-(2,5-difluoropyridin-3-yl)ethyl (4-(5-((S)-2,2-difluorocyclopropane-1-carboxamido)pyridin-2-yl)-1-methyl-1H-1,2,3-triazol-5-yl)carbamate] | 245
9 | C[C@@H](OC(=O)Nc1c(-c2ccc(NC(=O)C3(C(F)F)CC3)cn2)nnn1C)c1cc(F)cnc1F [Compound 165, (R)-1-(2,5-difluoropyridin-3-yl)ethyl (4-(5-(1-(difluoromethyl)cyclopropane-1-carboxamido)pyridin-2-yl)-1-methyl-1H-1,2,3-triazol-5-yl)carbamate] | 487
10 | C[C@@H](OC(=O)Nc1c(-c2ccc(NC(=O)C3(C(F)F)CC3)cn2)nnn1C)c1cc(F)cnc1Cl [Compound 166, (R)-1-(2-chloro-5-fluoropyridin-3-yl)ethyl (4-(5-(1-(difluoromethyl)cyclopropane-1-carboxamido)pyridin-2-yl)-1-methyl-1H-1,2,3-triazol-5-yl)carbamate] | 238
11 | C[C@@H](OC(=O)Nc1c(-c2ccc(NC(=O)C34CC(C#N)(C3)C4)cn2)nnn1C)c1cc(F)cnc1Cl [Compound 167, (R)-1-(2-chloro-5-fluoropyridin-3-yl)ethyl (4-(5-(3-cyanobicyclo[1.1.1]pentane-1-carboxamido)pyridin-2-yl)-1-methyl-1H-1,2,3-triazol-5-yl)carbamate] | 99.4
12 | C[C@@H](OC(=O)Nc1c(-c2ccc(NC(=O)C3(C#N)CC3)cn2)nnn1C)c1cc(F)cnc1Cl [Compound 168, (R)-1-(2-chloro-5-fluoropyridin-3-yl)ethyl (4-(5-(1-cyanocyclopropane-1-carboxamido)pyridin-2-yl)-1-methyl-1H-1,2,3-triazol-5-yl)carbamate] | 16.2
13 | C[C@@H](OC(=O)Nc1c(-c2ccc(NC(=O)[C@@H]3C[C@H]3F)cn2)nnn1C)c1cccnc1F [Compound 169, (R)-1-(2-fluoropyridin-3-yl)ethyl (4-(5-((1S,2R)-2-fluorocyclopropane-1-carboxamido)pyridin-2-yl)-1-methyl-1H-1,2,3-triazol-5-yl)carbamate] | 191
14 | C[C@@H](OC(=O)Nc1c(-c2ccc(NC(=O)C34CC(C(F)(F)F)(C3)C4)cn2)nnn1C)c1cccnc1F [Compound 170, (R)-1-(2-fluoropyridin-3-yl)ethyl (1-methyl-4-(5-(3-(trifluoromethyl)bicyclo[1.1.1]pentane-1-carboxamido)pyridin-2-yl)-1H-1,2,3-triazol-5-yl)carbamate] | 31.8
15 | C[C@@H](OC(=O)Nc1c(-c2ccc(NC(=O)C3CC(F)(F)C3)cn2)nnn1C)c1cccnc1F [Compound 171, (R)-1-(2-fluoropyridin-3-yl)ethyl (4-(5-(3,3-difluorocyclobutane-1-carboxamido)pyridin-2-yl)-1-methyl-1H-1,2,3-triazol-5-yl)carbamate] | 140
16 | C[C@@H](OC(=O)Nc1c(-c2ccc(NC(=O)C3(C#N)CC3)cn2)nnn1C)c1cccnc1F [Compound 172, (R)-1-(2-fluoropyridin-3-yl)ethyl (4-(5-(1-cyanocyclopropane-1-carboxamido)pyridin-2-yl)-1-methyl-1H-1,2,3-triazol-5-yl)carbamate] | 236
17 | C[C@@H](OC(=O)Nc1c(-c2ccc(NC(=O)C34CC(F)(C3)C4)cn2)nnn1C)c1cccnc1F [Compound 173, (R)-1-(2-fluoropyridin-3-yl)ethyl (4-(5-(3-fluorobicyclo[1.1.1]pentane-1-carboxamido)pyridin-2-yl)-1-methyl-1H-1,2,3-triazol-5-yl)carbamate] | 181
18 | C[C@@H](OC(=O)Nc1c(-c2ccc(NC(=O)C34CC(C#N)(C3)C4)cn2)nnn1C)c1cccnc1F [Compound 174, (R)-1-(2-fluoropyridin-3-yl)ethyl (4-(5-(3-cyanobicyclo[1.1.1]pentane-1-carboxamido)pyridin-2-yl)-1-methyl-1H-1,2,3-triazol-5-yl)carbamate] | 107
19 | Cc1ncc(F)cc1[C@@H](C)OC(=O)Nc1c(-c2ccc(NC(=O)C3CC(F)(F)C3)cn2)nnn1C [Compound 175, (R)-1-(5-fluoro-2-methylpyridin-3-yl)ethyl (4-(5-(3,3-difluorocyclobutane-1-carboxamido)pyridin-2-yl)-1-methyl-1H-1,2,3-triazol-5-yl)carbamate] | 35.4
20 | Cc1ncc(F)cc1[C@@H](C)OC(=O)Nc1c(-c2ccc(NC(=O)[C@@H]3C[C@H]3F)cn2)nnn1C [Compound 176, (R)-1-(5-fluoro-2-methylpyridin-3-yl)ethyl (4-(5-((1S,2R)-2-fluorocyclopropane-1-carboxamido)pyridin-2-yl)-1-methyl-1H-1,2,3-triazol-5-yl)carbamate] | 253
21 | Cc1ncc(F)cc1[C@@H](C)OC(=O)Nc1c(-c2ccc(NC(=O)C3(C#N)CC3)cn2)nnn1C [Compound 177, (R)-1-(5-fluoro-2-methylpyridin-3-yl)ethyl (4-(5-(1-cyanocyclopropane-1-carboxamido)pyridin-2-yl)-1-methyl-1H-1,2,3-triazol-5-yl)carbamate] | 48.3
22 | Cc1ncc(F)cc1[C@@H](C)OC(=O)Nc1c(-c2ccc(NC(=O)C34CC(C#N)(C3)C4)cn2)nnn1C [Compound 178, (R)-1-(5-fluoro-2-methylpyridin-3-yl)ethyl (4-(5-(3-cyanobicyclo[1.1.1]pentane-1-carboxamido)pyridin-2-yl)-1-methyl-1H-1,2,3-triazol-5-yl)carbamate] | 140
23 | Cc1ncc(F)cc1[C@@H](C)OC(=O)Nc1c(-c2ccc(NC(=O)C34CC(F)(C3)C4)cn2)nnn1C [Compound 179, (R)-1-(5-fluoro-2-methylpyridin-3-yl)ethyl (4-(5-(3-fluorobicyclo[1.1.1]pentane-1-carboxamido)pyridin-2-yl)-1-methyl-1H-1,2,3-triazol-5-yl)carbamate] | 46.5
24 | Cc1ncc(F)cc1[C@@H](C)OC(=O)Nc1c(-c2ccc(NC(=O)[C@@H]3CC3(F)F)cn2)nnn1C [Compound 180, (R)-1-(5-fluoro-2-methylpyridin-3-yl)ethyl (4-(5-((S)-2,2-difluorocyclopropane-1-carboxamido)pyridin-2-yl)-1-methyl-1H-1,2,3-triazol-5-yl)carbamate] | 123
25 | CC(OC(=O)Nc1c(-c2ccc(NC(=O)C3(C#N)CC3)cn2)nnn1C)c1ccc(F)nc1Cl (stereo not shown) [Compound 181, 1-(2-chloro-6-fluoropyridin-3-yl)ethyl (4-(5-(1-cyanocyclopropane-1-carboxamido)pyridin-2-yl)-1-methyl-1H-1,2,3-triazol-5-yl)carbamate] | 428
26 | CC(=O)Nc1ccc(-c2nnn(C)c2NC(=O)OC(C)c2ccc(F)nc2Cl)nc1 (stereo not shown) [Compound 182, 1-(2-chloro-6-fluoropyridin-3-yl)ethyl (4-(5-acetamidopyridin-2-yl)-1-methyl-1H-1,2,3-triazol-5-yl)carbamate] | 2050
27 | C[C@@H](OC(=O)Nc1c(-c2cc(F)c(NC(=O)C3(C#N)CC3)cn2)nnn1C)c1cccnc1Cl [Compound 183, (R)-1-(2-chloropyridin-3-yl)ethyl (4-(5-(1-cyanocyclopropane-1-carboxamido)-4-fluoropyridin-2-yl)-1-methyl-1H-1,2,3-triazol-5-yl)carbamate] | 1060
28 | C[C@@H](OC(=O)Nc1c(-c2cc(F)c(NC(=O)C34CC(C#N)(C3)C4)cn2)nnn1C)c1cccnc1Cl [Compound 184, (R)-1-(2-chloropyridin-3-yl)ethyl (4-(5-(3-cyanobicyclo[1.1.1]pentane-1-carboxamido)-4-fluoropyridin-2-yl)-1-methyl-1H-1,2,3-triazol-5-yl)carbamate] | 81.8
